Laboratory results published in publication PMC6467574 (Journal of controlled release : official journal of the …, 2018).
Where two headings read alike, the source gives them in different places.

Key:
[1] = Equilibrium solubility determination in test media; type: physicochemical; settings: 37 °C; for Equilibrium solubility, effect of addition of mucin: 0.1, 0.2, 0.4 %w/v mucin in 10 mM phosphate buffer pH 6.50 relative to buffer; for Equilibrium solubility, effect of addition of 8 %w/v PIM: 8 %w/v native pig intestinal mucus in 10 mM phosphate buffer pH 6.50 relative to buffer
[2] = Supersaturation-precipitation; type: physicochemical; settings: for Duration intended degree of drug supersaturation was maintained / Time to drug precipitation: base buffer, preliminary experiments, SSR 5 (CVDL) / 6 (PXM)
Caco-2 monolayers = settings: human, 100 min
[3] = system: Caco-2:HT29-MTX-E12 co-culture monolayers; settings: human, 100 min
[4] = 1 SSR (multiple of equilibrium solubility)
[5] = 5 SSR (multiple of equilibrium solubility)

| Time after which drug started to precipitate ([2]; SSR = 6, buffer alone, HPLC) [h] | SSR reached at 24 h ([2]; SSR = 6 induced, buffer alone, HPLC) | SSR maintained throughout the monitoring period ([2]; SSR = 6 induced, presence of mucin (regardless of concentration) and PIM, HPLC) | Structure (SMILES) | Equilibrium solubility, effect of addition of mucin [1] | Equilibrium solubility, effect of addition of 8 %w/v PIM [1] | Time drug remained supersaturated ([2]; SSR = 5, 8 %w/v native PIM, ISE) [h] | Time to precipitation (Tss), effect of increasing mucin concentration ([2]; SSR = 5, ISE, up to 0.2 %w/v mucin) | Time within which supersaturated drug precipitated (ISE) ([2]; SSR = 5, absence of mucus, ISE, average ± SEM, n=3) [min] | Time after which drug precipitated (HPLC) ([2]; SSR = 5, buffer solution, HPLC analysis) [min] | SSR maintained throughout the monitoring period ([2]; SSR = 5 induced, 0.4 %w/v mucin, ISE, 24 h) | SSR maintained throughout the monitoring period ([2]; SSR = 5 induced, 8 %w/v PIM, ISE, 24 h) | Duration intended degree of drug supersaturation was maintained [2] | Time to drug precipitation [2] [h] | TEER relative to starting value (Caco-2 monolayers; [4]) [% starting value] | TEER relative to starting value (Caco-2 monolayers; [5]) | TEER relative to starting value [3, 4] [% starting value] | TEER relative to starting value [3, 5] |
| --- | --- | --- | --- | --- | --- | --- | --- | --- | --- | --- | --- | --- | --- | --- | --- | --- | --- |
|  |  |  | COc1ccccc1OCCNCC(O)COc1cccc2[nH]c3ccccc3c12 (stereo not drawn) [CVDL, Carvedilol] | did not change | significantly increased | 24 | significantly increased | 19 ± 4 | > 10 | > 3 | > 3 | at least 5 min | ≤ 1 | > 80 | ~ 60 % starting value | > 80 | ~ 60 % starting value |
| > 5 | ~ 4 | 6 | CN1C(C(=O)Nc2ccccn2)=C(O)c2ccccc2S1(=O)=O [PXM, piroxicam] | appeared to increase | significantly increased |  |  |  |  |  |  | at least 5 min | ≤ 5 |  |  |  |  |
